Assay results published in patent publication US9932637B2, “Genetic polymorphisms associated with cardiovascular disorders and drug response, methods of detection and uses thereof” (CELERA CORPORATION, priority 2003, dated 2018).

System: patients with prior myocardial infarction (CARE study)
Assay: CARE: association of SNPs with pravastatin treatment in cardiovascular events prevention (logistic regression, odds ratio pravastatin vs placebo by genotype; Table 8)
Format: in vivo, human
Settings: All Patients; for Coronary Artery Bypass or Revascularization, n/total (%) / Total Coronary Heart Disease Events, n/total (%) / Fatal/Non-fatal Atherosclerotic CV Disease, n/total (%) / Hosp. for Cardiovascular Disease, n/total (%) / Total Cardiovascular Disease Events, n/total (%) / Fatal/Non-fatal MI (def & prob), n/total (%) / Fatal CHD/Definite Non-fatal MI, n/total (%) / Non-fatal MI (def & prob), n/total (%): Prava
Text: In order to identify genetic markers associated with acute coronary events (e.g. MI, stroke, unstable angina, congestive heart failure, etc.) or response to statin treatment for the prevention of coronary events, samples from the Cholesterol and Recurrent Events (CARE) study (a randomized multicentral double-blinded trial on secondary prevention of acute coronary events with pravastatin) (Sacks et al., 1991, Am. J. Cardiol. 68: 1436-1446) were genotyped. A well-documented myocardial infarction (MI) was one of the enrollment criteria for entry into the CARE study. Patients were enrolled in the CARE trial from 80 participating study centers. […] Patients were randomized to receive either 40 mg of pravastatin once daily or a matching placebo. The primary endpoint of the trial was death from coronary heart disease and the median duration of follow-up was 5.0 years (range, 4.0 to 6.2 years). […] Secondary endpoints of other related cardiovascular or metabolic disease events, and changes in clinical variables were also recorded in pravastatin-treated and placebo groups. All individuals included in the study had signed a written informed consent form and the study protocol was approved by the respective Institutional Review Boards (IRBs).
For genotyping SNPs in CARE patient samples, DNA was extracted from blood samples using conventional DNA extraction methods such as the QIA-amp kit from Qiagen. Genotypes were obtained on an ABI PRISM® 7900HT Sequence Detection PCR system (Applied Biosystems, Foster City, Calif.) by kinetic allele-specific PCR, similar to the method described by Germer et al. (Germer S., Holland M. J., Higuchi R. 2000, Genome Res. 10: 258-266).
Statistical analysis for association of SNPs with pravastatin treatment in cardiovascular events prevention (Table 8) was carried out using an overall logistic regression model that included an intercept, a parameter for the effect of a genotype containing two rare alleles versus a genotype containing no rare alleles, a parameter for the effect of a genotype containing one rare allele versus a genotype containing no rare alleles, a parameter for the effect of use of pravastatin versus the use of placebo, and parameters for the interaction effects between SNP genotypes and pravastatin use. The test of the overall model is a chi-square test with two degrees of freedom for analyses containing all three genotypes, and one degree of freedom for analyses containing two genotypes.
Effect sizes were estimated through odds ratios (pravastatin group versus placebo) for carriers of each genotype (groups of 0, 1, and 2 minor allele carriers). The effect was considered to be significant if p-value for testing whether any of the interactions between SNP genotypes and pravastatin use were <0.05. […] Odds ratios less than one indicate that the specific SNP allele has a protective effect and odds ratios greater than one indicate that the specific SNP allele has an adverse effect.

[1] = HLA-DPB1 hCV8851085, Coronary Artery Bypass or Revascularization
[2] = HLA-DPB1 hCV8851085, Fatal/Non-fatal Atherosclerotic CV Disease
[3] = HLA-DPB1 hCV8851085, Fatal/Non-fatal MI (def & prob)
[4] = HLA-DPB1 hCV8851085, Hosp. for Cardiovascular Disease
[5] = HLA-DPB1 hCV8851085, Total Cardiovascular Disease Events
[6] = HLA-DPB1 hCV8851085, Total Coronary Heart Disease Events
[7] = HLA-DPB1 hCV25651174, 2 Rare Alleles, n/total 20/144

Structure (SMILES): CC[C@H](C)C(=O)O[C@H]1C[C@H](O)C=C2C=C[C@H](C)[C@H](CC[C@@H](O)C[C@@H](O)CC(=O)O)[C@H]21 [pravastatin]
- Coronary Artery Bypass or Revascularization, n/total (%) (HLA-DPB1 hCV8851085, 0 Rare Alleles, n/total 129/919): (14.0%)
- Total Coronary Heart Disease Events, n/total (%) (HLA-DPB1 hCV8851085, 0 Rare Alleles, n/total 263/919): (28.6%)
- Fatal/Non-fatal Atherosclerotic CV Disease, n/total (%) (HLA-DPB1 hCV8851085, 0 Rare Alleles, n/total 301/919): (32.8%)
- Hosp. for Cardiovascular Disease, n/total (%) (HLA-DPB1 hCV8851085, 0 Rare Alleles, n/total 363/919): (39.5%)
- Total Cardiovascular Disease Events, n/total (%) (HLA-DPB1 hCV8851085, 0 Rare Alleles, n/total 374/919): (40.7%)
- Fatal/Non-fatal MI (def & prob), n/total (%) (HLA-DPB1 hCV8851085, 1 Rare Allele, n/total 53/521): (10.2%)
- Coronary Artery Bypass or Revascularization, n/total (%) (HLA-DPB1 hCV8851085, 1 Rare Allele, n/total 72/521): (13.8%)
- Total Coronary Heart Disease Events, n/total (%) (HLA-DPB1 hCV8851085, 1 Rare Allele, n/total 151/521): (29.0%)
- Fatal/Non-fatal Atherosclerotic CV Disease, n/total (%) (HLA-DPB1 hCV8851085, 1 Rare Allele, n/total 174/521): (33.4%)
- Hosp. for Cardiovascular Disease, n/total (%) (HLA-DPB1 hCV8851085, 1 Rare Allele, n/total 209/521): (40.1%)
- Total Cardiovascular Disease Events, n/total (%) (HLA-DPB1 hCV8851085, 1 Rare Allele, n/total 214/521): (41.1%)
- Fatal/Non-fatal MI (def & prob), n/total (%) (HLA-DPB1 hCV8851085, 2 Rare Alleles, n/total 11/73): (15.1%)
- Coronary Artery Bypass or Revascularization, n/total (%) (HLA-DPB1 hCV8851085, 2 Rare Alleles, n/total 17/73): (23.3%)
- Total Coronary Heart Disease Events, n/total (%) (HLA-DPB1 hCV8851085, 2 Rare Alleles, n/total 26/73): (35.6%)
- Fatal/Non-fatal Atherosclerotic CV Disease, n/total (%) (HLA-DPB1 hCV8851085, 2 Rare Alleles, n/total 29/73): (39.7%)
- Hosp. for Cardiovascular Disease, n/total (%) (HLA-DPB1 hCV8851085, 2 Rare Alleles, n/total 33/73): (45.2%)
- Total Cardiovascular Disease Events, n/total (%) (HLA-DPB1 hCV8851085, 2 Rare Alleles, n/total 35/73): (47.9%)
- Prava vs. Placebo Odds Ratio, 0 Rare Alleles [1]: 0.68
- Prava vs. Placebo Odds Ratio, 1 Rare Alleles [1]: 0.60
- Prava vs. Placebo Odds Ratio, 2 Rare Alleles [1]: 3.54
- Prava vs. Placebo Odds Ratio, 0 Rare Alleles [2]: 0.70
- Prava vs. Placebo Odds Ratio, 1 Rare Alleles [2]: 0.79
- Prava vs. Placebo Odds Ratio, 2 Rare Alleles [2]: 2.12
- Prava vs. Placebo Odds Ratio, 0 Rare Alleles [3]: 0.57
- Prava vs. Placebo Odds Ratio, 1 Rare Alleles [3]: 0.75
- Prava vs. Placebo Odds Ratio, 2 Rare Alleles [3]: 2.07
- Prava vs. Placebo Odds Ratio, 0 Rare Alleles [4]: 0.71
- Prava vs. Placebo Odds Ratio, 1 Rare Alleles [4]: 0.74
- Prava vs. Placebo Odds Ratio, 2 Rare Alleles [4]: 1.79
- Prava vs. Placebo Odds Ratio, 0 Rare Alleles [5]: 0.70
- Prava vs. Placebo Odds Ratio, 1 Rare Alleles [5]: 0.74
- Prava vs. Placebo Odds Ratio, 2 Rare Alleles [5]: 1.77
- Prava vs. Placebo Odds Ratio, 0 Rare Alleles [6]: 0.72
- Prava vs. Placebo Odds Ratio, 1 Rare Alleles [6]: 0.76
- Prava vs. Placebo Odds Ratio, 2 Rare Alleles [6]: 2.25
- Fatal CHD/Definite Non-fatal MI, n/total (%) (HLA-DPB1 hCV25651174, 0 Rare Alleles, n/total 58/733): (7.9%)
- Non-fatal MI (def & prob), n/total (%) (HLA-DPB1 hCV25651174, 0 Rare Alleles, n/total 63/733): (8.6%)
- Fatal/Non-fatal MI (def & prob), n/total (%) (HLA-DPB1 hCV25651174, 0 Rare Alleles, n/total 65/733): (8.9%)
- Coronary Artery Bypass or Revascularization, n/total (%) (HLA-DPB1 hCV25651174, 0 Rare Alleles, n/total 103/733): (14.1%)
- Total Coronary Heart Disease Events, n/total (%) (HLA-DPB1 hCV25651174, 0 Rare Alleles, n/total 207/733): (28.2%)
- Fatal/Non-fatal Atherosclerotic CV Disease, n/total (%) (HLA-DPB1 hCV25651174, 0 Rare Alleles, n/total 230/733): (31.4%)
- Hosp. for Cardiovascular Disease, n/total (%) (HLA-DPB1 hCV25651174, 0 Rare Alleles, n/total 282/733): (38.5%)
- Total Cardiovascular Disease Events, n/total (%) (HLA-DPB1 hCV25651174, 0 Rare Alleles, n/total 291/733): (39.7%)
- Non-fatal MI (def & prob), n/total (%) (HLA-DPB1 hCV25651174, 1 Rare Allele, n/total 55/632): (8.7%)
- Fatal/Non-fatal MI (def & prob), n/total (%) (HLA-DPB1 hCV25651174, 1 Rare Allele, n/total 61/632): (9.7%)
- Fatal CHD/Definite Non-fatal MI, n/total (%) (HLA-DPB1 hCV25651174, 1 Rare Allele, n/total 62/632): (9.8%)
- Coronary Artery Bypass or Revascularization, n/total (%) (HLA-DPB1 hCV25651174, 1 Rare Allele, n/total 87/632): (13.8%)
- Total Coronary Heart Disease Events, n/total (%) (HLA-DPB1 hCV25651174, 1 Rare Allele, n/total 182/632): (28.8%)
- Fatal/Non-fatal Atherosclerotic CV Disease, n/total (%) (HLA-DPB1 hCV25651174, 1 Rare Allele, n/total 218/632): (34.5%)
- Hosp. for Cardiovascular Disease, n/total (%) (HLA-DPB1 hCV25651174, 1 Rare Allele, n/total 259/632): (41.0%)
- Total Cardiovascular Disease Events, n/total (%) (HLA-DPB1 hCV25651174, 1 Rare Allele, n/total 265/632): (41.9%)
- Non-fatal MI (def & prob), n/total (%) (HLA-DPB1 hCV25651174, 2 Rare Alleles, n/total 16/144): (11.1%)
- Fatal CHD/Definite Non-fatal MI, n/total (%) [7]: (13.9%)
- Fatal/Non-fatal MI (def & prob), n/total (%) [7]: (13.9%)
- Coronary Artery Bypass or Revascularization, n/total (%) (HLA-DPB1 hCV25651174, 2 Rare Alleles, n/total 27/144): (18.8%)
- Total Coronary Heart Disease Events, n/total (%) (HLA-DPB1 hCV25651174, 2 Rare Alleles, n/total 50/144): (34.7%)
- Fatal/Non-fatal Atherosclerotic CV Disease, n/total (%) (HLA-DPB1 hCV25651174, 2 Rare Alleles, n/total 54/144): (37.5%)
- Hosp. for Cardiovascular Disease, n/total (%) (HLA-DPB1 hCV25651174, 2 Rare Alleles, n/total 61/144): (42.4%)
